{"source": "patent US20160376374A1", "about": "“ANTIBODIES TO CEACAM1 AND KINASE INHIBITORS FOR TREATING BRAF-MUTATED CELLS” (TEL HASHOMER MEDICAL RESEARCH INFRASTRUCTURE AND SERVICES …, priority 2014, published 2016)", "key": {"[1]": {"tested_on": "CEACAM1 expression on B-Raf V600E cells (526mel, 624mel)", "assay": "CEACAM1 expression on cells by FACS, mutated B-Raf cells", "format": "cell-based, human", "method": "Total RNA was extracted from 1.0*10^6 melanoma cells with TRIZOL. cDNA was generated with standard reverse transcriptase. Real time PCR was performed with CEACAM1-specific primers and compared to glyceraldehyde 3-phosphate dehydrogenase (GAPDH) tested as a control. Cycle threshold (Ct) values above 36 were considered as minimal or no expression. B-Raf genotype was determined by direct sequencing of amplified fragment from genomic DNA that contains the codon for position 600 of the B-Raf protein. Statistical analysis of the correlation between CEACAM1 expression (negative or positive) with the mutation status (positive=V600E, or negative=wild type) was performed by Fisher exact test.\nCells were then tested for CEACAM1 expression using MRG1 (murine antibody to human CEACAM1) in flow cytometry as described above. Total RNA was extracted with TRIZOL and cDNA was generated with a reverse transcriptase, according to routine protocols."}, "[2]": {"tested_on": "vemurafenib-resistant B-Raf V600E (624mel) cells", "assay": "MAPK activity by immunoblotting for phosphorylated ERK1/2, vemurafenib-resistant cells", "format": "cell-based", "settings": "vemurafenib-resistant 624mel; 160 nM, 24 hours; FIG. 4B", "method": "Two vemurafenib-sensitive B-Raf V600E cell samples (526mel, 624mel) and vemurafenib-resistant cell lines derived therefrom were incubated for 2 days with 1 μM vemurafenib. Cells were then analyzed for CEACAM1 protein expression by FACS as described above. Vemurafenib-resistant cell lines were generated by gradual increase of the inhibitor's concentration in culture, up to 0.32 μM.\n(§1) MAPK activity was measured in vemurafenib-sensitive and vemurafenib-resistant B-Raf V600E (624mel) cell samples by immunoblotting for phosphorylated ERK1/2 (pERK, Thr202/Tyr204), total ERK1/2 and actin after 24 hours of exposure to 160 nM vemurafenib."}, "[3]": {"tested_on": "B-Raf W.T. (076mel, 013mel) cells", "assay": "MAPK activity by immunoblotting for phosphorylated ERK1/2, B-Raf W.T. cells", "format": "cell-based", "settings": "B-Raf W.T. cells 076mel, 1 μM, 48 hours, FIG. 2", "method": "(§2) MAPK activity was measured in B-Raf V600E (624mel, sk-mel-5) and B-Raf W.T. (076mel, 013mel) cell samples by immunoblotting for phosphorylated ERK1/2 (pERK, Thr202/Tyr204), total ERK1/2 and actin after 48 hours of exposure to vemurafenib (1 μM)."}, "[4]": {"tested_on": "B-Raf V600E (624mel, sk-mel-5) cells", "assay": "MAPK activity by immunoblotting for phosphorylated ERK1/2, B-Raf V600E cells", "format": "cell-based", "method": "as §2, §1"}, "[5]": {"tested_on": "CEACAM1 expression on B-Raf W.T. cells (076mel)", "assay": "CEACAM1 expression on cells by FACS, W.T. B-Raf cells", "format": "cell-based, human", "settings": "076mel (W.T. B-Raf); 0.1 μM and 1 μM, 2 to 48 hours; FIG. 3A"}, "[6]": {"tested_on": "B-Raf V600E 526mel melanoma cells", "assay": "Determined IC50 of vemurafenib used to generate resistant melanoma cells", "format": "cell-based", "method": "B-Raf V600E 526mel melanoma cells were cultured in the presence of 1 μM vemurafenib. Cultivation was performed in RPMI 1640 supplemented with 1 mM Na-Pyruvate, 1 mM Pen-Strep, 1 mM L-Glutamine, 1 mM non-essential amino acids, and 10% heat inactivated fetal calf serum. […] Cells were then tested for CEACAM1 expression using MRG1 (murine antibody to human CEACAM1) in flow cytometry as described above. Total RNA was extracted with TRIZOL and cDNA was generated with a reverse transcriptase, according to routine protocols."}, "[7]": {"tested_on": "B-Raf V600E cell samples (526mel, 624mel) with cytotoxic T cells", "assay": "Killing of melanoma cells by cytotoxic T cells, LDH release", "format": "cell-based", "settings": "pre-incubated with 1 μM, overnight, effector-target ratio 5:1, FIG. 7", "method": "Melanoma cells were pre-incubated with 1 μM vemurafenib and then co-incubated overnight with HLA-A2 matched antigen-matched T cells in effector-target ratio of 5:1. Cell killing was determined by LDH release."}, "[8]": {"tested_on": "CEACAM1 expression on sk-mel-2 cells (W.T. B-Raf, mutated N-Ras)", "assay": "CEACAM1 expression on cells by FACS, W.T. B-Raf / mutated N-Ras cells", "settings": "sk-mel-2 (W.T. B-Raf, mutated N-Ras); 1 μM; FIG. 3C", "quoted_text": "At each time point, CEACAM1 expression on the cells was determined by FACS. Volume equivalents of DMSO (vehicle) were used as control."}}}
{"smiles": "CCCS(=O)(=O)Nc1ccc(F)c(C(=O)c2c[nH]c3ncc(-c4ccc(Cl)cc4)cc23)c1F", "note": "[vemurafenib, N-(3-{[5-(4-chlorophenyl)-1H-pyrrolo[2,3-b]pyridin-3-yl]carbonyl}-2,4-difluorophenyl)propane-1-sulfonamide]", "values": [{"measurement": "CEACAM1 expression levels on cells", "setting": "[1]; 526mel, 624mel (mutated B-Raf), 0.1 μM and 1 μM, 2 to 48 hours, FIG. 3A-B", "result": "dose-dependent effect"}, {"measurement": "CEACAM1 expression", "setting": "[1]; B-Raf V600E 526mel melanoma cells, 1 μM, flow cytometry with MRG1, FIG. 5", "result": "down regulates CEACAM1 expression"}, {"measurement": "MAPK activity (phosphorylated ERK1/2)", "setting": "[2]", "result": "practically uninterrupted"}, {"measurement": "phosphorylation of ERK1/2 (pERK, Thr202/Tyr204)", "setting": "[3]", "result": "no substantial effect"}, {"measurement": "phosphorylation of ERK1/2 (pERK, Thr202/Tyr204)", "setting": "[4]; B-Raf V600E cells 624mel, sk-mel-5, 1 μM, 48 hours, FIG. 2", "result": "almost completely abolishes the phosphorylation of ERK1/2"}, {"measurement": "phosphorylation of ERK1/2 (pERK, Thr202/Tyr204)", "setting": "[4]; vemurafenib-sensitive 624mel, 160 nM, 24 hours, FIG. 4B", "result": "almost completely abolishes the phosphorylation of ERK1/2"}, {"measurement": "CEACAM1 expression levels on cells", "setting": "[5]", "result": "did not have any effect"}, {"measurement": "IC50", "setting": "[6]", "result": 0.64, "unit": "nM"}, {"measurement": "sensitization of melanoma cells to cytotoxic T cells (cell killing by LDH release)", "setting": "[7]", "result": "significantly sensitizes melanoma cells to cytotoxic T cells"}, {"measurement": "CEACAM1 expression levels on cells", "setting": "[8]", "result": "no effect"}]}
